Legend:
[1] = target: T1, Recombinant IKKα (Homo sapiens, UniProt O15111); test: DELFIA IKKα kinase assay (apparent Ki, Cheng-Prusoff); type: biochemical
T1 construct: purchased Millipore, Dundee, UK
T1 sequence (O15111 1-745): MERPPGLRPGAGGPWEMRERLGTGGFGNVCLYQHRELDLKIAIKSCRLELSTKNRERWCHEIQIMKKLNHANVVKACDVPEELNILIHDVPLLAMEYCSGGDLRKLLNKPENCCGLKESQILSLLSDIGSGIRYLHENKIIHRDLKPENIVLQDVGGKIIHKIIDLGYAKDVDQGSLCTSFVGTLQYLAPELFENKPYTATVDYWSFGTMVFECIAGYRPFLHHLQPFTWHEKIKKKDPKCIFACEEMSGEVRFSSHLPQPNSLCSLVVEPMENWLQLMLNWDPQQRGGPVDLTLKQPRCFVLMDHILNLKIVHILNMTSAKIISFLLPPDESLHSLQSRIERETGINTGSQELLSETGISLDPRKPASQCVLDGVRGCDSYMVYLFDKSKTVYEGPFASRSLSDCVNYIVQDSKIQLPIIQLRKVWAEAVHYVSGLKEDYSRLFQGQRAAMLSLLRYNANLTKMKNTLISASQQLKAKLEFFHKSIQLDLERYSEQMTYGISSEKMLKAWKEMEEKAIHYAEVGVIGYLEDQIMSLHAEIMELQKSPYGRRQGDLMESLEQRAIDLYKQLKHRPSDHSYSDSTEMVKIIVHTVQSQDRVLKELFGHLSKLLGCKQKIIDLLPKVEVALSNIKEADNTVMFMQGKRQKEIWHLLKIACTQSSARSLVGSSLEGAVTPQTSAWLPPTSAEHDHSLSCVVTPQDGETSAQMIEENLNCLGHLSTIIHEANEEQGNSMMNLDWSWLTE
Outline: (§1)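 DELFIA time-resolved fluorescence (ex 340/em 615 nm) quantified phosphorylation of a biotinylated IκB-α Ser32 peptide (0.375 μM) by 37 nM recombinant IKKα or IKKβ. Reactions used 40 μM ATP, Tris pH 7.5 buffer with MgCl2, DTT and BSA, 60 min at 30° C. Cheng-Prusoff equation gave apparent Ki.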

[2] = target: T2, Recombinant IKKβ (Homo sapiens, UniProt O14920); test: DELFIA IKKβ kinase assay (apparent Ki, Cheng-Prusoff); type: biochemical
T2 construct: purchased Millipore, Dundee, UK
T2 sequence (O14920 1-756): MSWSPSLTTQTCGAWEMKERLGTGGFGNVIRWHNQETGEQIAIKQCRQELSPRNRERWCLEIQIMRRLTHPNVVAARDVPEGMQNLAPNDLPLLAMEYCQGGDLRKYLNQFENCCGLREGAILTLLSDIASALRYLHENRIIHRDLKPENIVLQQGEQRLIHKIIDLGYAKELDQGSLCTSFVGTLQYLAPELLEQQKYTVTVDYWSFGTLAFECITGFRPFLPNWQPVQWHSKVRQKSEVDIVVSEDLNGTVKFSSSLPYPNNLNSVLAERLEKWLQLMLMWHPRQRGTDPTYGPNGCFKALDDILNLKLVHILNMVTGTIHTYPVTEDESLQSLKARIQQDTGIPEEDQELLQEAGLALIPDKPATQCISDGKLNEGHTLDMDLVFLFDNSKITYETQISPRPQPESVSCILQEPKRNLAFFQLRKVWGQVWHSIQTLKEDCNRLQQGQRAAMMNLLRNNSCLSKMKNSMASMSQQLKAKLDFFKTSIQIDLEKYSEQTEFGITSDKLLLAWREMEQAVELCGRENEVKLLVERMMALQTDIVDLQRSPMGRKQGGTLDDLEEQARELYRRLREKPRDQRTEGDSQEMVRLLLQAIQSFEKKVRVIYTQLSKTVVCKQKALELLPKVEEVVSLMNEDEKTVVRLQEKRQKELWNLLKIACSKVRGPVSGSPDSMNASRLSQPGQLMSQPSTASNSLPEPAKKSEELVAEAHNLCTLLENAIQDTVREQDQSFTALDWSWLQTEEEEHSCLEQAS
Outline: as §1

[3] = non-italicised figure: DELFIA assay
[4] = DELFIA assay (first line of an example)

Row | Structure (SMILES) | Ki [1, 3] | Ki [2, 3] | Ki [1, 4] | Ki [2, 4]
1 | CC(C)(C)c1ccc(-c2cc(-c3ccnc(N)c3)cc3c(N)n[nH]c23)cc1 [Example 123, 5-(2-Aminopyridin-4-yl)-7-(4-(tert-butyl)phenyl)-1H-indazol-3-amine] | 160 nM | 1500 nM |  | 
2 | COC(=O)Nc1cc(-c2cc(C#CC3CC3)c3[nH]nc(N)c3c2)ccn1 [Example 179, Methyl (4-(3-amino-7-(cyclopropylethynyl)-1H-indazol-5yl)-pyridin-2-yl)carbamate] | 10 nM | 962 nM |  | 
3 | Nc1n[nH]c2ccc(-c3ccnc(NC(=O)Nc4ccc(F)cc4)c3)cc12 [Example 62, 1-(4-(3-Amino-1H-indazol-5-yl)pyridine-2-yl)-3-(4-fluorophenyl)urea] | 22 nM | 115 nM |  | 
4 | Nc1cc(-c2cc(C(F)(F)F)c3[nH]nc(N)c3c2)ccn1 [Example 3, 5-(2-Aminopyridin-4-yl)-7-(trifluoromethyl)-1H-indazol-3-amine] | 38 nM | 194 nM |  | 
5 | Nc1n[nH]c2c(C#CCCCC(=O)O)cc(-c3ccnc4[nH]ccc34)cc12 [Example 214, 6-(3-Amino-5-(1H-pyrrolo[2,3-b]pyridin-4-yl)-1H-indazol-7-yl)hex-5-ynoic acid] |  |  | 21 nM | 268 nM
6 | COC(=O)Nc1cc(-c2cc(C#CC3CCOCC3)c3[nH]nc(N)c3c2)ccn1 [Example 285] |  |  | 37 nM | 274 nM
7 | Nc1n[nH]c2ccc(-c3ccnc(NC(=O)NCCc4ccccc4)c3)cc12 [Example 46, 1-(4-(3-Amino-1H-indazol-5-yl)pyridin-2-yl)-3-phenethylurea] | 571 nM | > 10000 nM |  | 
8 | Nc1cc(-c2cc(C#CC3CCOCC3)c3[nH]nc(N)c3c2)ccn1 [Example 142, 5-(2-Aminopyridin-4-yl)-7-((tetrahydro-2H-pyran-4-yl)ethynyl)-1H-indazol-3-amine] | 20 nM | 700 nM |  | 
9 | CC(C)(C)C#Cc1cc(-c2ccnc(NCCN)c2)cc2c(N)n[nH]c12 [Example 161, N^1-(4-(3-Amino-7-(3,3-dimethylbut-1-yn-1-yl)-1H-indazol-5-yl)pyridin-2-yl)ethane-1,2-diamine] | 128 nM | 7610 nM |  | 
10 | Nc1n[nH]c2c(C#CCCN3CCCCC3)cc(-c3ccnc4[nH]ccc34)cc12 [Example 211, 7-(4-(Piperidin-1-yl)but-1-yn-1-yl)-5-(1H-pyrrolo[2,3-b]pyridin-4-yl)-1H-indazol-3-amine] |  |  | 19 nM | 356 nM
11 | CC(C)(C)C#Cc1cc(-c2ccnc3[nH]c(C4CCCC4)cc23)cc2c(N)n[nH]c12 [Example 295, 5-(2-Cyclopentyl-1H-pyrrolo[2,3-b]pyridin-4-yl)-7-(3,3-dimethylbut-1-yn-1-yl)-1H-indazol-3-amine] |  |  | 545 nM | 1160 nM
12 | CNC(=O)C#Cc1c(-c2ccc3[nH]nc(N)c3c2)ccnc1N [Example 98, 3-(2-Amino-4-(3-amino-1H-indazol-5-yl)pyridin-3-yl)-N-methylpropiolamide] | > 10000 nM | > 10000 nM |  | 
13 | Nc1n[nH]c2c(C#CC3CCOCC3)cc(-c3ccnc(NC4COC4)c3)cc12 [Example 288, 5-(2-(Oxetan-3-ylamino)pyridin-4-yl)-7-((tetrahydro-2H-pyran-4-yl)ethynyl)-1H-indazol-3-amine] |  |  | 24 nM | 500 nM
14 | CCC(=O)Nc1cc(-c2cc(C#CC(C)(C)C)c3[nH]nc(N)c3c2)ccn1 [Example 165, N-(4-(3-Amino-7-(3,3-dimethylbut-1-yn-1-yl)-1H-indazol-5-yl)pyridin-2-yl)propionamide] | 7 nM | 780 nM |  | 
15 | CC(C)c1ccccc1NC(=O)Nc1cc(-c2ccc3[nH]nc(N)c3c2)ccn1 [Example 68, 1-(4-(3-Amino-1H-indazol-5-yl)pyridin-2-yl)-3-(2-isopropylphenyl)urea] | 100 nM | 1900 nM |  | 
16 | CCOC(=O)Nc1cc(-c2cc(C#CC(C)(C)C)c3[nH]nc(N)c3c2)ccn1 [Example 191, Ethyl (4-(3-amino-7-(3,3-dimethylbut-1-yn-1-yl)-1H-indazol-5-yl)pyridin-2-yl)carbamate] |  |  | 20 nM | 1590 nM
17 | NCCNC(=O)c1cc2c(-c3ccc4[nH]nc(N)c4c3)ccnc2[nH]1 [Example 241, 4-(3-Amino-1H-indazol-5-yl)-N-(2-aminoethyl)-1H-pyrrolo[2,3-b]pyridine-2-carboxamide] |  |  | 4 nM | 122 nM
18 | Nc1n[nH]c2ccc(-c3ccnc4[nH]c(Cc5ccccc5)cc34)cc12 [Example 223, 5-(2-Benzyl-1H-pyrrolo[2,3-b]pyridin-4-yl)-1H-indazol-3-amine] |  |  | 1 nM | 111 nM
19 | CS(=O)(=O)c1ccc(NC(=O)Nc2cc(-c3ccc4[nH]nc(N)c4c3)ccn2)cc1 [Example 65, 1-(4-(3-Amino-1H-indazol-5-yl)pyridin-2-yl)-3-(4-(methylsulfonyl)phenyl)urea] | 27 nM | 419 nM |  | 
20 | CC(C)(C)C#Cc1cc(-c2ccnc(NC(=O)CO)c2)cc2c(N)n[nH]c12 [Example 174, N-(4-(3-Amino-7-(3,3-dimethylbut-1-yn-1-yl)-1H-indazol-5-yl)pyridin-2-yl)-2-hydroxyacetamide] | 20 nM | 611 nM |  | 
21 | Nc1nccc(-c2ccc3[nH]nc(N)c3c2)c1C1CC1 [Example 100, 5-(2-Amino-3-cyclopropylpyridin-4-yl)-1H-indazol-3-amine] | 1790 nM | > 10000 nM |  | 
22 | COCCNC(=O)Nc1cc(-c2ccc3[nH]nc(N)c3c2)ccn1 [Example 43, 1-(4-(3-Amino-1H-indazol-5-yl)pyridin-2-yl)-3-(2-methoxyethyl)urea] | 76 nM | 1590 nM |  | 
23 | C[C@H]1CC[C@H](Nc2cc(-c3ccc4[nH]nc(N)c4c3)ccn2)CC1 [Example 19, 5-{2-[(Trans-4-methylcyclohexyl)amino]pyridin-4-yl}-1H-indazol-3-amine] | 170 nM | > 10000 nM |  | 
24 | CCNC(=O)Nc1cc(-c2cc(C#CC(C)(C)C)c3[nH]nc(N)c3c2)ccn1 [Example 187, 1-(4-(3-Amino-7-(3,3-dimethylbut-1-yn-1-yl)-1H-indazol-5-yl)pyridin-2-yl)-3-ethylurea] | 438 nM | 8100 nM |  | 
25 | CN(CCO)C(=O)Nc1cc(-c2ccc3[nH]nc(N)c3c2)ccn1 [Example 44, 3-(4-(3-Amino-1H-indazol-5-yl)pyridin-2-yl)-1-(2-hydroxyethyl)-1-methylurea] | 418 nM | > 10000 nM |  | 
26 | COC(=O)Nc1cc(-c2cc(-c3ccc(CCN4CCOCC4)cc3)c3[nH]nc(N)c3c2)ccn1 [Example 330, Methyl (4-(3-amino-7-(4-(2-morpholinoethyl)phenyl)-1H-indazol-5-yl)pyridin-2-yl)carbamate] |  |  | > 10000 nM | > 10000 nM
27 | Nc1n[nH]c2ccc(-c3ccnc(NC(=O)Nc4cccc(OCc5ccccc5F)c4)c3)cc12 [Example 60, 1-(4-(3-Amino-1H-indazol-5-yl)pyridin-2-yl)-3-(3-((2-fluorobenzyl)oxy)phenyl)urea] | 76 nM | 2480 nM |  | 
28 | Nc1n[nH]c2ccc(-c3ccnc(NCC4CC4)c3)cc12 [Example 15, 5-(2-((Cycipropylmethyl)amino)pyridine-4-yl)-1H-indazol-3-amine] | 171 nM | 796 nM |  | 
29 | Nc1n[nH]c2ccc(-c3ccnc(N[C@H]4CC[C@H](O)CC4)c3)cc12 [Example 24, 5-{2-[(Trans-4-hydroxycyclohexyl)amino]pyridin-4-yl}-1H-indazol-3-amine] | 100 nM | > 10000 nM |  | 

Source: US20250304576A1 (Cancer Research Technology Limited, priority 2022, published 2025)
